What was measured:
Assay type in all cases: cell-based, human
[1] = test system: sterol regulatory element-binding protein 1 (SREBP1); assay: Gene expression, real-time PCR; details: HepG2 + 0.25 mM OA, 200 and 400 μM compound, 24 h, normalized to GAPDH
Method: (§1) To better understand how the supplementation of compounds 2 and 4 during LDA in HepG2 cells affects lipolysis and lipogenesis, we performed gene expression analysis using real-time PCR under the following conditions. Briefly, HepG2 cells (2.0 × 10^5/well) were seeded in 24-well plates (n = 6 per treatment). After 24 h, the cells were treated with PBS, 0.25 mM OA only, 0.25 mM OA plus 200 and 400 μM compound 2, or 0.25 mM OA plus 200 and 400 μM compound 4. After another 24 h, RNA extraction and complementary DNA synthesis were performed, according to the manufacturer’s instructions and a previous study. The sequences of the primers used are shown in the Supplementary Materials, Table S1: adipose triglyceride lipase (ATGL), diacylglycerol O-acyltransferase 1 (DGAT1), sterol regulatory element-binding protein 1 (SREBP1), fatty acid synthase (FASN), stearoyl-CoA desaturase 1 (SCD1), and glyceraldehyde-3-phosphate dehydrogenase (GAPDH). PCR was performed using a CFX 96 Real-Time PCR Detection System (Bio-Rad Laboratories Inc., Hercules, CA, USA) under the following conditions: 95 °C for 30 s, followed by 40 cycles at 95 °C for 5 s, 60 °C for 5 s, and 72 °C for 10 s. All gene expression levels were analyzed using the ΔΔCt method and normalized to GAPDH. Data were represented as relative expression based on that of the control group.

[2] = test system: adipose triglyceride lipase (ATGL); assay: Gene expression, real-time PCR; details: HepG2 + 0.25 mM OA, 200 and 400 μM compound, 24 h, normalized to GAPDH
Method: as §1

[3] = test system: stearoyl-CoA desaturase 1 (SCD1); assay: Gene expression, real-time PCR; details: HepG2 + 0.25 mM OA, 200 and 400 μM compound, 24 h, normalized to GAPDH
Method: as §1

[4] = test system: fatty acid synthase (FASN); assay: Gene expression, real-time PCR; details: HepG2 + 0.25 mM OA, 200 and 400 μM compound, 24 h, normalized to GAPDH
Method: as §1

[5] = test system: diacylglycerol O-acyltransferase 1 (DGAT1); assay: Gene expression, real-time PCR; details: HepG2 + 0.25 mM OA, 200 and 400 μM compound, 24 h, normalized to GAPDH
Method: as §1

HepG2 cells [6] = assay: Accumulated triacylglycerol species by LC-MS/MS in oleic acid-loaded cells; details: for Number of accumulated triacylglycerol molecular species inhibited: 24 h of treatment; for inhibition at 200 µM: Homo sapiens, HepG2, 24 h
Method: Tested compounds (200 μM) were added to cultured HepG2 cells loaded with oleic acid and incubated at 37 °C for 24 h, as previously described. Centrifuged samples were analyzed using an LC/MS orbitrap. Chromatographic separation was performed using a Shimadzu Prominence UHPLC system with a binary solvent delivery system and a standard auto-sampler. An Atlantis® T3 column (2.1 × 150 mm, 3 μm, Waters) was used for separation, with a flow rate of 200 μL/min. The mobile phase consisted of A: 10 mM ammonium acetate solution; B: isopropanol; and C: methanol. Positive mode: 0–1 min, 6% B and 90% C; 1–10 min, 83% B and 15% C; 10–19 min, 83% B and 15% C; 19–19.5 min, 6% B and 90% C; 19.5–22 min, 6% B and 90% C. The injection volume was 10 μL. The column temperature was maintained at 40 °C. The LC/MS parameters were as previously described.

HepG2 cells [7] = assay: Lipid droplet accumulation inhibition (LDAI) assay, Oil Red O, oleic acid-loaded cells; details: HepG2 + 0.25 mM oleic acid, vs untreated control (+OA)
Method: LDAI assay: LDAI activity was determined using an Oil Red O assay with 24-well plates (n = 4 per treatment). Staining of LDs in cultured hepatocytes was performed according to the manufacturer’s instructions, based on the Oil Red O staining assay. Briefly, HepG2 cells (1.5 × 10^4/well) were supplemented with 10% FBS, cultured, seeded in 35-mm dishes, and treated with the tested samples after 24 h. Oil Red O, a fat-soluble dye, is widely used for staining neutral lipids in LDs, as described in the Supplementary Materials. […]
2 1.2. Cytotoxicity assay dropwise under ice-cooling. […]
Lipid droplet accumulation inhibition assay and Real-Ti me LDAI acid tryptophan (9) and compound 12 were subjected to acid conversion at 90 °C accumulation in acetic acid to obtain compound 2 (1H and 13C, see in Supporting Information). Lipid droplet accumulation inhibition (LDAI) activity was determined using an Synthesis of Compound 4. To a stirred soln . compound 3 in MeOH was added oilred assay in a 24-well plate according to the manufacturer ’sinstructions (n = 4 with NaOH (2 mol/L). Compound 4 was obtained after stirringthe mixture at 65℃ per each treatment). Real-time oleic induced-LD inhibition was performed by for 5 h. (1H and 13C, see Figures S10 and S11). We also prepared similar using a Nikkon microscope. Morphological analysis of HepG2 cells after compounds without any substituent at the C-1 position in the C-ring using a one- treatment with control(-OA) and (+OA) or compound at different concentrations pot Pictet–Spengler reaction (6-8). was determined by staining with AO/EB.
Synthetic b-carboline alkaloids (1-8): 1.4. Oil Red O Staining.
CAS Registry Number of all the series of synthetic b-carboline alkaloids (1-8) HepG2 cells were cultured and treated in 35 mm dishes, as described above. were subjected to biological evaluation: 1H-Pyrido[3,4-b]indole-3-carboxylic acid, Oil Red O dye was used for LD staining. Oil Red O was dissolved in isopropanol 1-[5-[(acetyloxy)methyl]-2-furanyl]-2,3,4,9-tetrahydro-, methyl ester, (1S-trans)- as 3 mg/mL and diluted with water so that isopropanol became 60%. Oil Red O (9CI) (1,CAS Registry Number 11 5 1 0 7-75-0;11 5 1 0 7-76-1);2,3,4,9-Tetrahydro-1-solutionwasfilteredbya0.4 μm pore syringe filter.For cellular staining, the […]

HepG2 cells [8] = assay: LD fluorescence staining assay (Oil Red O / Hoechst); details: 200 μM, HepG2 loaded with OA, Oil Red O and Hoechst 33,342
Method: LD fluorescence staining assay: The staining was performed with modifications based on our previous report. HepG2 cells were seeded in 35 mm glass bottom dishes at 4.0 × 10^5/plate. After 24 h of incubation, OA and all samples were processed for 24 h. Oil Red O staining was performed, then the Hoechst reagent solution mixed with PBS was added and incubated in the dark for 25 min. Images were then captured using a BZ-9000 fluorescence microscope (Keyence Co., Ltd., Osaka, Japan).

[9] = 24 h, HepG2 + OA, vs control (+OA), read-out: Inhibition of accumulated TAG 48:4
[10] = 24 h, HepG2 + OA, vs control (+OA), read-out: Inhibition of accumulated TAG 50:3
[11] = 24 h, HepG2 + OA, vs control (+OA), read-out: Inhibition of accumulated TAG 50:5
[12] = 24 h, HepG2 + OA, vs control (+OA), read-out: Inhibition of accumulated TAG 52:4
[13] = 24 h, HepG2 + OA, vs control (+OA), read-out: Inhibition of accumulated TAG 52:5
[14] = 24 h, HepG2 + OA, vs control (+OA), read-out: Inhibition of accumulated TAG 52:6
[15] = 24 h, HepG2 + OA, vs control (+OA), read-out: Inhibition of accumulated TAG 52.7
[16] = 24 h, HepG2 + OA, vs control (+OA), read-out: Inhibition of accumulated TAG 54:7
[17] = 24 h, HepG2 + OA, vs control (+OA), read-out: Inhibition of accumulated TAG 56.9

Row | Structure (SMILES) | SREBP1 gene expression [1] | ATGL gene expression [2] | SCD1 gene expression [3] | FASN gene expression [4] | DGAT1 gene expression [5] | Number of accumulated triacylglycerol molecular species inhibited (HepG2 cells [6]; 200 μM, HepG2 + OA) | inhibition at 200 µM (HepG2 cells [6]; [9]) [%] | inhibition at 200 µM (HepG2 cells [6]; [10]) [%] | inhibition at 200 µM (HepG2 cells [6]; [11]) [%] | inhibition at 200 µM (HepG2 cells [6]; [12]) [%] | inhibition at 200 µM (HepG2 cells [6]; [13]) [%] | inhibition at 200 µM (HepG2 cells [6]; [14]) [%] | inhibition at 200 µM (HepG2 cells [6]; [15]) [%] | inhibition at 200 µM (HepG2 cells [6]; [16]) [%] | inhibition at 200 µM (HepG2 cells [6]; [17]) [%] | inhibition at 200 µM (HepG2 cells [7]; Homo sapiens, HepG2, 24 h) [%] | inhibition at 400 µM (HepG2 cells [7]; Homo sapiens, HepG2, 24 h) [%] | LDs in fluorescence image (HepG2 cells [8]) | also measured
1 | O=C(O)C1Cc2c([nH]c3ccccc23)C(c2ccc(CO)o2)N1 (stereo not shown) [Compound 2, 1,2,3,4-tetrahydro-1-(5-(hydroxymethyl)-2-furanyl)-9H-pyrido [3,4-b]indole-3-carboxylic acid] | significantly downregulated | upregulated | did not induce a significant reduction | significantly downregulated | no change | twenty-five | 23.4 | 26.6 | 33.7 | 28.1 | 9.5 | 33.4 | 35.1 | 30 | 28.3 | 29.1 | 74 | significantly inhibited | inhibition at 200 µM (HepG2 cells [6]; 24 h, HepG2 + OA, vs control (+OA), read-out: Inhibition of accumulated TAG 56:10): 45.9%; inhibition at 200 µM (HepG2 cells [6]; 24 h, HepG2 + OA, vs control (+OA), read-out: Inhibition of accumulated TAG 58:12): 50 to 74%; inhibition at 200 µM (HepG2 cells [6]; 24 h, except TAGs 58:12, 46:3, 54:6, and 56:7, read-out: Inhibition of most of the accumulated triacylglycerol molecular species): 25 to 49%; inhibition at 100 µM (HepG2 cells [7]; Homo sapiens, HepG2, 24 h, 100 μM): 25.5%
2 | O=C(O)c1cc2c([nH]c3ccccc32)c(-c2ccc(CO)o2)n1 [Compound 4, flazin] | strongly downregulated | upregulated | strongly downregulated | strongly downregulated | no change | twenty | 39 | 49.4 | 72.5 | 51.2 | 49.1 | 65.7 | 70.7 | 66.3 | 71.4 | 20 | 77.5 | significantly inhibited | Inhibition of TAGs 52:6; 52:7; 56:10; 56:9; and 62:4 (in words) (HepG2 cells [6]; 200 μM, 24 h, HepG2 + OA): total inhibition; inhibition at 200 µM (HepG2 cells [6]; 24 h, HepG2 + OA, vs control (+OA), read-out: Inhibition of accumulated TAG 46:3): 28.9%; inhibition at 200 µM (HepG2 cells [6]; 24 h, HepG2 + OA, vs control (+OA), read-out: Inhibition of accumulated TAG 54:6): 49.4%; inhibition at 200 µM (HepG2 cells [6]; 24 h, HepG2 + OA, vs control (+OA), read-out: Inhibition of accumulated TAG 56:7): 49.1%; inhibition at 200 µM (HepG2 cells [6]; 24 h, HepG2 + OA, vs control (+OA), read-out: Inhibition of accumulated TAG 56:8): 58.1%; inhibition at 200 µM (HepG2 cells [6]; 24 h, HepG2 + OA, vs control (+OA), read-out: Inhibition of accumulated TAG 58:11): 65.2%; inhibition at 200 µM (HepG2 cells [6]; 24 h, HepG2 + OA, vs control (+OA), read-out: Inhibition of accumulated TAG 60:12): 66.4%; inhibition at 200 µM (HepG2 cells [6]; 24 h, HepG2 + OA, vs control (+OA), read-out: Inhibition of accumulated TAG 62:14): 76.4%; LDAI (HepG2 cells [7]; 100 μM, 24 h): ns

— publication PMC9147645, “Food-Derived β-Carboline Alkaloids Ameliorate Lipid Droplet Accumulation in Human Hepatocytes” (Pharmaceuticals, 2022)
